Test results reported in patent publication US20240358692A1, “TREATMENT OF SCLERODERMA” (Aisa Pharma, Inc., priority 2023, published 2024).

Key:
participants with SSc-RP [1] = assay: SHAQ - Alternative Disability Index; assay type: in vivo, human; parameters: key to SHAQ Alternative Disability Index, In-Clinic Visit (Day 12), Median: mean of 8 category scores, 0 = no difficulty to 3 = unable to do; conditions: for % change in Alternative Disability Index: SHAQ, mITT Part A; for alternative disability index, Change from Baseline, Mean / alternative disability index, Change from Baseline, Median / alternative disability index, Percent Change from Baseline, Mean / alternative disability index, Percent Change from Baseline, Median / alternative disability index, In Clinic Visit (Day 12), Mean / alternative disability index, In Clinic Visit (Day 12), Median: Modified ITT Population-Part A, tadalafil 5 mg, alone or combined as labelled
From the text: The SHAQ is used to calculate a Disability Index to assess the participant qualify of life. The eight categories assessed by the Disability Index are 1) dressing and grooming, 2) arising, 3) eating, 4) walking, 5) hygiene, 6) reach, 7) grip, and 8) common daily activities. For each of these categories, patients report the amount of difficulty they have in performing two or three specific activities.
There are four possible responses for the Disability Index questions: • Without any difficulty=0 • With some difficulty=1 • With much difficulty=2 • Unable to do=3 • The highest score reported by the patient for any component question of the eight categories determines the score for that category. • If a component question is left blank or the response is too ambiguous to assign a score, then the score for that category is determined by the remaining completed question(s). • If all component questions are blank or if more than one answer is given, then follow up with the respondent is required. • If the respondent's mark is between the response columns, then move it to the closest one. If it's directly between the two, move it to the higher one.
The aid and device variables are not used to calculate the alternative disability index; it is calculated by adding the scores for each of the categories and dividing by the number of categories answered. This gives a score in the 0 to 3 range.

participants with SSc-RP [2] = assay: SHAQ - Visual Analog Scale - Breathing Problems; assay type: in vivo, human; parameters: Visual Analog Scale-Breathing Problems, In Clinic Visit (Day 12), Mean / Visual Analog Scale-Breathing Problems, In Clinic Visit (Day 12), Median / SHAQ Visual Analogue Scale - Breathing Problems, In-Clinic Visit (Day 12), Mean / SHAQ Visual Analogue Scale - Breathing Problems, In-Clinic Visit (Day 12), Median / SHAQ Visual Analogue Scale - Breathing Problems, Change from Baseline, Median: scale not given here; conditions: Part A
From the text: The standard, validated, patient reported outcome measures tool for SSc patients, the Scleroderma Health Assessment Questionnaire (SHAQ), will be used to assess the participant qualify of life. Details are attached in the Appendix. The participant quality of life will be scored, and a disability index calculated for each questionnaire completed by the patient at Screening and each in-clinic visit. The absolute change in participant quality of life from baseline to the end of each dosing period will be calculated similar to frequency data as before.
The standard, validated, patient reported outcome measures tool for SSc patients, the SHAQ, was collected at the time points specified in the study schedules (FIG. 2 and FIGS. 4A and 4B) to assess the participant's quality of life. The SHAQ included a Raynaud's VAS that will also be reported separately.

[3] = Any Cilnidipine (N = 17), Day 12, PP Population, Part A
[4] = Cilnidipine 10 mg, SSc patients, PP, Part A
[5] = Cilnidipine 20 mg, SSc patients, PP, Part A
[6] = Pooled Cilnidipine 10 mg and Cilnidipine 10 mg + Tadalafil 5 mg (N = 9), Day 12, PP Population, Part A
[7] = Pooled Cilnidipine (N = 8), Day 12, PP Population, Part A
[8] = Any Cilnidipine (N = 17), Day 12, PP Population, Subject 01-110 excluded
[9] = Cilnidipine 10 mg, SSc patients, PP

COCCOC(=O)C1=C(C)NC(C)=C(C(=O)OC/C=C/c2ccccc2)C1c1cccc([N+](=O)[O-])c1 (centres unmarked) [Cilnidipine]
SHAQ Alternative Disability Index, Change from Baseline, Mean (SD) (participants with SSc-RP [1]; [3]): −0.006 (0.1912) | SHAQ Alternative Disability Index, Change from Baseline, Median (participants with SSc-RP [1]; [3]): 0.000 | SHAQ Alternative Disability Index, In-Clinic Visit (Day 12), Mean (SD) (participants with SSc-RP [1]; [3]): 0.450 (0.4926) | SHAQ Alternative Disability Index, In-Clinic Visit (Day 12), Median (participants with SSc-RP [1]; [3]): 0.250 | SHAQ Alternative Disability Index, Percent Change from Baseline, Mean (SD) (participants with SSc-RP [1]; [3]): 21.32 (100.525) % | SHAQ Alternative Disability Index, Percent Change from Baseline, Median (participants with SSc-RP [1]; [3]): −10.00% | SHAQ Alternative Disability Index, Change from Baseline, Max (participants with SSc-RP [1]; [4]): 0.38 | SHAQ Alternative Disability Index, Change from Baseline, Mean (participants with SSc-RP [1]; [4]): 0.063 | SHAQ Alternative Disability Index, Change from Baseline, Median (participants with SSc-RP [1]; [4]): 0.000 | SHAQ Alternative Disability Index, Change from Baseline, Min (participants with SSc-RP [1]; [4]): −0.13, | SHAQ Alternative Disability Index, Change from Baseline, Q1 (participants with SSc-RP [1]; [4]): −0.063, | SHAQ Alternative Disability Index, Change from Baseline, Q3 (participants with SSc-RP [1]; [4]): 0.188 | SHAQ Alternative Disability Index, Day 12, Max (participants with SSc-RP [1]; [4]): 1.25 | SHAQ Alternative Disability Index, Day 12, Mean (participants with SSc-RP [1]; [4]): 0.563 | SHAQ Alternative Disability Index, Day 12, Median (participants with SSc-RP [1]; [4]): 0.500 | SHAQ Alternative Disability Index, Day 12, Min (participants with SSc-RP [1]; [4]): 0.00, | SHAQ Alternative Disability Index, Day 12, Q1 (participants with SSc-RP [1]; [4]): 0.000, | SHAQ Alternative Disability Index, Percent Change from Baseline, Max (participants with SSc-RP [1]; [4]): 42.9 | SHAQ Alternative Disability Index, Percent Change from Baseline, Mean (participants with SSc-RP [1]; [4]): 15.87 | SHAQ Alternative Disability Index, Percent Change from Baseline, Median (participants with SSc-RP [1]; [4]): 15.87 | SHAQ Alternative Disability Index, Percent Change from Baseline, Min (participants with SSc-RP [1]; [4]): −11.1, | SHAQ Alternative Disability Index, Percent Change from Baseline, Q1 (participants with SSc-RP [1]; [4]): −11.11, | SHAQ Alternative Disability Index, Percent Change from Baseline, Q3 (participants with SSc-RP [1]; [4]): 42.86 | % change in Alternative Disability Index (participants with SSc-RP [1]; Cilnidipine 20 mg (n = 3)): −42% | SHAQ Alternative Disability Index, Change from Baseline, Max (participants with SSc-RP [1]; [5]): 0.25 | SHAQ Alternative Disability Index, Change from Baseline, Mean (participants with SSc-RP [1]; [5]): 0.000 | SHAQ Alternative Disability Index, Change from Baseline, Median (participants with SSc-RP [1]; [5]): −0.063 | SHAQ Alternative Disability Index, Change from Baseline, Min (participants with SSc-RP [1]; [5]): −0.13, | SHAQ Alternative Disability Index, Day 12, Max (participants with SSc-RP [1]; [5]): 0.50 | SHAQ Alternative Disability Index, Day 12, Mean (participants with SSc-RP [1]; [5]): 0.219 | SHAQ Alternative Disability Index, Day 12, Median (participants with SSc-RP [1]; [5]): 0.188 | SHAQ Alternative Disability Index, Day 12, Min (participants with SSc-RP [1]; [5]): 0.00, | SHAQ Alternative Disability Index, Day 12, Q1 (participants with SSc-RP [1]; [5]): 0.063, | SHAQ Alternative Disability Index, Day 12, Q3 (participants with SSc-RP [1]; [5]): 0.375 | SHAQ Alternative Disability Index, Percent Change from Baseline, Max (participants with SSc-RP [1]; [5]): 100.0 | SHAQ Alternative Disability Index, Percent Change from Baseline, Mean (participants with SSc-RP [1]; [5]): 5.56 | SHAQ Alternative Disability Index, Percent Change from Baseline, Median (participants with SSc-RP [1]; [5]): −33.33 | SHAQ Alternative Disability Index, Percent Change from Baseline, Min (participants with SSc-RP [1]; [5]): −50.0, | SHAQ Alternative Disability Index, Percent Change from Baseline, Q1 (participants with SSc-RP [1]; [5]): −50.00, | SHAQ Alternative Disability Index, Percent Change from Baseline, Q3 (participants with SSc-RP [1]; [5]): 100.00 | alternative disability index, Change from Baseline, Mean (participants with SSc-RP [1]; Day 12, dose cilnidipine 10 mg): 0.063 | alternative disability index, Change from Baseline, Median (participants with SSc-RP [1]; Day 12, dose cilnidipine 10 mg): 0.000 | alternative disability index, Percent Change from Baseline, Mean (participants with SSc-RP [1]; Day 12, dose cilnidipine 10 mg): 15.87% | alternative disability index, Percent Change from Baseline, Median (participants with SSc-RP [1]; Day 12, dose cilnidipine 10 mg): 15.87% | alternative disability index, Change from Baseline, Mean (participants with SSc-RP [1]; Day 12, dose cilnidipine 20 mg): −0.083 | alternative disability index, Change from Baseline, Median (participants with SSc-RP [1]; Day 12, dose cilnidipine 20 mg): −0.125 | alternative disability index, Percent Change from Baseline, Mean (participants with SSc-RP [1]; Day 12, dose cilnidipine 20 mg): −41.67% | alternative disability index, Percent Change from Baseline, Median (participants with SSc-RP [1]; Day 12, dose cilnidipine 20 mg): −41.67% | alternative disability index, In Clinic Visit (Day 12), Mean (participants with SSc-RP [1]; dose cilnidipine 10 mg): 0.563 | alternative disability index, In Clinic Visit (Day 12), Median (participants with SSc-RP [1]; dose cilnidipine 10 mg): 0.500 | alternative disability index, In Clinic Visit (Day 12), Mean (participants with SSc-RP [1]; dose cilnidipine 20 mg): 0.125 | alternative disability index, In Clinic Visit (Day 12), Median (participants with SSc-RP [1]; dose cilnidipine 20 mg): 0.125 | SHAQ Alternative Disability Index, Change from Baseline, Mean (participants with SSc-RP [1]; [6]): 0.021 | SHAQ Alternative Disability Index, Percent Change from Baseline, Median (participants with SSc-RP [1]; [6]): −10.00% | SHAQ Alternative Disability Index, Change from Baseline, Mean (participants with SSc-RP [1]; Pooled Cilnidipine 20 mg and Cilnidipine 20 mg + Tadalafil 5 mg (N = 8), Day 12, PP Population, Part A): −0.036 | SHAQ Alternative Disability Index, Change from Baseline, Mean (participants with SSc-RP [1]; [7]): 0.031 | SHAQ Alternative Disability Index, Change from Baseline, Mean (SD) (participants with SSc-RP [1]; [7]): 0.031 (0.1860) | SHAQ Alternative Disability Index, In-Clinic Visit (Day 12), Mean (SD) (participants with SSc-RP [1]; [7]): 0.391 (0.4884) | SHAQ Alternative Disability Index, Percent Change from Baseline, Mean (SD) (participants with SSc-RP [1]; [7]): 9.68 (61.446) % | SHAQ Alternative Disability Index, Percent Change from Baseline, Median (participants with SSc-RP [1]; [7]): −11.11% | % change in Alternative Disability Index (participants with SSc-RP [1]; Pooled Cilnidipine (n = 7)): −13% | % Δ from baseline, alternative disability mean (participants with SSc-RP [1]; Pooled cilnidipine (n=4)): −12.9% | SHAQ Visual Analogue Scale - Breathing Problems, Change from Baseline, Mean (SD) (participants with SSc-RP [2]; [8]): 0.025 (1.2310) | SHAQ Visual Analogue Scale - Breathing Problems, Change from Baseline, Median (participants with SSc-RP [2]; [8]): 0.000 | SHAQ Visual Analogue Scale - Breathing Problems, In-Clinic Visit (Day 12), Mean (SD) (participants with SSc-RP [2]; [8]): 1.388 (2.2783) | SHAQ Visual Analogue Scale - Breathing Problems, In-Clinic Visit (Day 12), Median (participants with SSc-RP [2]; [8]): 0.300 | SHAQ Visual Analogue Scale - Breathing Problems, Percent Change from Baseline, Mean (SD) (participants with SSc-RP [2]; [8]): 50.12 (200.437) % | SHAQ Visual Analogue Scale - Breathing Problems, Percent Change from Baseline, Median (participants with SSc-RP [2]; [8]): −16.00% | SHAQ VAS Breathing Problems, Change from Baseline, Max (participants with SSc-RP [2]; [9]): 0.00 | SHAQ VAS Breathing Problems, Change from Baseline, Mean (participants with SSc-RP [2]; [9]): −0.300 | SHAQ VAS Breathing Problems, Change from Baseline, Min (participants with SSc-RP [2]; [9]): −1.20, | SHAQ VAS Breathing Problems, Change from Baseline, Q1 (participants with SSc-RP [2]; [9]): −0.600, | SHAQ VAS Breathing Problems, Change from Baseline, Q3 (participants with SSc-RP [2]; [9]): 0.000 | SHAQ VAS Breathing Problems, Day 12, Max (participants with SSc-RP [2]; [9]): 6.30 | SHAQ VAS Breathing Problems, Day 12, Mean (participants with SSc-RP [2]; [9]): 1.575 | SHAQ VAS Breathing Problems, Day 12, Min (participants with SSc-RP [2]; [9]): 0.00, | SHAQ VAS Breathing Problems, Day 12, Q1 (participants with SSc-RP [2]; [9]): 0.000, | SHAQ VAS Breathing Problems, Percent Change from Baseline, Max (participants with SSc-RP [2]; [9]): −16.0 | SHAQ VAS Breathing Problems, Percent Change from Baseline, Mean (participants with SSc-RP [2]; [9]): −16.00 | SHAQ VAS Breathing Problems, Percent Change from Baseline, Median (participants with SSc-RP [2]; [9]): −16.00
